Columns and labels:
[1] = test system: mouse cumulus enclosed oocytes (CEO); test: IVF fertilisation of cumulus enclosed oocytes after IVM with a statin; format: cell-based
Experimental: Mouse oocytes were isolated and cultured according to descriptions in example 3 but for a single deviation in that the IVM culture medium was further supplemented with 1 mg/mL Fetuin (Sigma F-3385, Sigma, U.S.A.). […] The ethanol was necessary in order to dissolve Mevinolin in the medium. After in vitro maturation for 22 h, oocytes were transferred to a fertilisationn medium consisting of minimal essential medium (MEM) (21090-022, Gibco BRL, Scotland), 200 mM L-glutamine (Gibco BRL, Scotland), 20000 IU/L penicillin (Gibco BRL, Scotland), 20000 IU/L streptomycin (Gibco BRL, Scotland), 3 mg/ml BSA (Sigma A-7030, Sigma-Aldrich, Denmark), 2.3 mM sodium pyruvate (S-8636, Sigma), 10 mM ethylen diamine tetra acetic acid (EDTA, Merck 1.08418.0250) and 1 mg/mL Fetuin (Sigma F-3385, Sigma, U.S.A.). Prior to oocyte transfer into the fertilisation medium, mouse sperm for IVF was obtained the following way: A 6-9 month old C57 black×DBA 2 F1 male mouse (M&B A/S, Ry, Denmark) was killed and the epididymis prepared in physiological saline. Thereafter, the epididymis were cut in small pieces and the bulk material was transferred to four 1-mL culture well containing the 800 μL IVF-medium described above and subsequently placed in an incubator (37° C., 95% atmospheric air: 5% CO2). After 1.5 hours of incubation, 300 μL of the upper liquid phase of each of the four wells was aspirated and transferred to a new glass-vial. The resulting pool of motile sperm was counted in a counting chamber and 50000 motile sperm cells was added each oocyte culture. […] These oocytes were left for another 48 hours and subsequently counted according to the maturational status of the oocyte or the progression of the fertilised zygote, i.e. GV-oocytes, GVBD-oocytes, PB-oocytes, PB^2-oocytes (oocytes with a visible second polar body), 2-cells, 3-4-cells, 4+ cells (zygotes with more than 4 blastomeres) and degenerated cells (usually granulated or cells with extensive plasma-membrane ondulation).

naked mouse oocytes (NO) = test: IVF fertilisation of naked oocytes after IVM with cyclodextrin; format: cell-based
Description: Mouse oocytes were isolated and cultured according to descriptions in […]. The NOs were divided into […] groups and cultured in dishes containing medium added either 0%o, 0.5%o, 2.0%o or 5%o hydroxypropyl-cyclodextrin (ICN 153540, ICN Ohio, U.S.A.). IVM and IVF conditions were the same as in example 6.

[2] = test system: C57 black×DBA 2 F1 female mice; test: Number of 2-cells in tuba of gonadotropin-stimulated female mice after statin administration and mating; format: in vivo, mouse; conditions: for No. of 2-cells in mated animals: pre-pubertal, Gnrh 12 I.U., hCG 10 I.U.
Experimental: Prepubertal C57 black×DBA 2 F1 female mice (M&B A/S, Ry, Denmark) were stimulated to super-ovulation (11 a.m. at day 0) by i.p. Injections of 12 IU Menogon® (Ferring, Denmark) in 200 μL H2O. […] Half of the mice were given additional Injections of 1.6 mg lovastatin, by dissolving a tablet of Mevacor® (Merck Sharp and Dohme, NL) containing 40 mg lovastatin in 5 ml PBS and injecting 200 μL of the resulting slurry i.p. at three consecutive days, beginning at day 0. […] The mice were caged individually one hour later with a mature male mouse of the same strain and supplier (1 male per female). Female and male mice were separated at 9 a.m. at day 3, females were left alone for another 48 h. After killing of the females and dissection of the tuba ovarii, 2-cells were flushed into a plastic dish with culture medium (see later) by mounting a glass pipette in one end of the isolated tuba and blowing by mouth through a filter. The total number of 2-cells flushed per mouse were hereafter counted. The 2-cells were subsequently cultured in Universal IVF-medium (Medicult, Denmark) in an incubator (37° C., 95% atmospheric air, 5% CO2) in 4-well dishes (Nunclon 176740, Nunc, Denmark). After 4 days of culture, wells were scored and numbers of morula, blastocyst or degenerated entities were determined by use of a microscope:
Prepubertal C57 black×DBA 2 F1 female mice (M&B A/S, Ry, Denmark) were treated as in example 1 but for a few deviations. […] In experiment B the dose of statins was decreased to 3×100 μg/animal and administered as in example 1. […] In experiment D the dose of gonadotropins were decreased gradually whereas the dose of statins was administered as in example 1.

[3] = test system: gonadotrophin primed prepubertal mouse ovaries; test: Free cholesterol, FF-MAS and progesterone in ovaries of gonadotrophin primed prepubertal mice (HPLC); format: in vivo; conditions: statin treatment on top of hCG
Experimental: Ovaries were isolated pair-wise, weighed, freeze-dried, weighed again and subsequently extracted in 1.0 ml (v/v) 75% n-heptane: 25% isopropanol. […] Eluted material was detected by ultraviolet light absorption between 200-300 nm. […] Standards for cholesterol (Steraloids […]) and P4 (Sigma P-0130) were obtained commercially whereas the FF-MAS standards used was produced in the laboratory as described before (Baltsen et al., 1999).

[4] = test system: motile cell fraction of epididymis; test: C/PL-ratio in motile cell fraction of epididymis after statin administration; format: in vivo, mouse; conditions: 3 i.p. injections of 1.0 mg lovastatin per 30 g body weight, male mice
Experimental: Post-pubertal C57 black×DBA 2 F1 male mice (M&B A/S, Ry, Denmark) are used. Four mice are given 3 i.p. injections of 1.0 mg lovastatin per 30 g body weight by dissolving a tablet of Mevacor® (Merck Sharp and Dohme, NL) containing 40 mg lovastatin in 8 ml PBS and injecting 200 μL of the resulting slurry i.p. at 1 p.m. at day-6, -3 and -1, counting the day of epididymal sperm harvest as day 0. […] At 10 a.m on day 0 all mice are killed and the epididymis are prepared in physiological saline. Thereafter, the epididymis are transferred to a 1-mL culture well containing MEM (Gibco BRL, Scotland) supplemented with 2.3 mM pyruvate, 200 mM L-glutamine (Gibco BRL, Scotland), 20000 IU/L penicillin (Gibco BRL, Scotland), 20000 IU/L streptomycin (Gibco BRL, Scotland) and 0.2 mg/ml BSA (Sigma A-7030, Sigma-Aldrich, Denmark) and placed in an incubator (37° C., 95% atmospheric air: 5% CO2).
After 1.5 hours of incubation, the upper liquid phase is aspirated and transferred to a new glass-vial and centrifuged. […] One half is subjected to sterol analysis as designated in the examples above and the total sterol content is calculated to consist of cholesterol, desmosterol, cholesta-7,24-dien-3β-ol, T-MAS and lanosterol. […] The C/PL-ratio is calculated for each individual animal.

[5] = test system: C57 black×DBA 2 F1 male mice; test: Sperm quality in mice after statin administration; format: in vivo, mouse; conditions: statin administration as in example 6
Experimental: The set-up involves the same animals and statin administration as in example 6. The animals are analysed by methods that are developed in order to evaluate the fertilising potential and sperm quality.

[6] = test system: C57 black×DBA 2 F1 female mice; test: Number of 2-cells in tuba of gonadotropin-stimulated female mice after statin administration and mating; format: in vivo, mouse
[7] = test system: patients with type II hyperlipoprotelnemia; conditions: oral 40 mg daily for 4 months vs dietary management alone; cited from earlier work

Mevinolin
fraction of fertilised oocytes (PB2-oocytes to 4+ cells) after IVF ([1]; 10 μM statin in IVM-medium 22 h, vs control and 7.5 I.U./L FSH): increased
state of development after 72 hours of embryo culture ([1]; vs control and FSH groups): more progressed state
cumulus expansion after the IVM culture period ([1]; vs control oocytes): extensive cumulus expansion

CC(O)COC[C@H]1O[C@@H]2O[C@H]3[C@H](O)[C@@H](O)[C@@H](O[C@H]4[C@H](O)[C@@H](O)[C@@H](O[C@H]5[C@H](O)[C@@H](O)[C@@H](O[C@H]6[C@H](O)[C@@H](O)[C@@H](O[C@H]7[C@H](O)[C@@H](O)[C@@H](O[C@H]8[C@H](O)[C@@H](O)[C@@H](O[C@H]1[C@H](O)[C@H]2O)O[C@@H]8COCC(C)O)O[C@@H]7COCC(C)O)O[C@@H]6COCC(C)O)O[C@@H]5COCC(C)O)O[C@@H]4COCC(C)O)O[C@@H]3COCC(C)O (stereo partly drawn) [hydroxypropyl-beta-cyclodextrin, hydroxypropyl-β-cyclodextrin]
fraction of fertilised oocytes (PB2-oocytes to 4+ cells) after IVF (naked mouse oocytes (NO); 0.5, 2.0 or 5 per mille in IVM-medium of NOs vs control): increased
rate of degeneration (naked mouse oocytes (NO); cyclodextrin in the IVM-medium): not affected

CC[C@H](C)C(=O)O[C@H]1C[C@@H](C)C=C2C=C[C@H](C)[C@H](CC[C@@H]3C[C@@H](O)CC(=O)O3)[C@H]21 [Mevacor, lovastatin]
development of cultured 2-cells into blastocysts, recovery rates ([2]; 2-cells cultured in vitro 4 days): indiscriminate to controls
number of 2-cells per animal ([2]; 3×1.6 mg statin i.p. during follicular phase maturation, vs control): increased significantly
No. of 2-cells in mated animals ([2]; Exp. A, 100 μg single, ovulation): 27.5 ± 3.5
No. of 2-cells in mated animals ([2]; Exp. A, 1000 μg single, ovulation): 15.3 ± 7.3
No. of 2-cells in mated animals ([2]; Exp. B, 100 μg single, ovulation): 19.3 ± 4.1
No. of 2-cells in mated animals ([2]; Exp. B, 3 × 100 μg multi, follicular phase): 6.5 ± 1.0
more 2-cells as compared to mice stimulated with hormone alone ([2]; hormone stimulated prepubertal female mice, average, FIG. 5): about 70%
LH/hCG induced accumulation of FF-MAS [3]: completely blocks
extent of progesterone (steroid) production [3]: not influenced
tendency of decreasing tissue density of free cholesterol in the ovaries after hCG stimulation [3]: pronounced
C/PL-ratios vs control group [4]: lower
fertilising potential and sperm quality vs control animals [5]: fertility premium
No. of 2-cells in mated animals ([6]; Exp. C, mature cycling, Gnrh 12 I.U., 3 × 1.0 mg multi, follicular phase): 11.4 ± 2.9
No. of 2-cells in mated animals ([6]; Exp. C, mature cycling, Gnrh 15 I.U., hCG 10 I.U., 1.0 mg single, ovulation): 16.8 ± 3.4
No. of 2-cells in mated animals ([6]; Exp. D, pre-pubertal, Gnrh 4 I.U., hCG 5 I.U., 3 × 1.0 mg multi, follicular phase): 5
sperm motility [7]: small but statistically significant reduction

Source: patent US20050132430A1, “Igamete recruitment and developmental competence in mammals by inhibiting the de-nova sterol biosynthesis and/or promoting sterol efflux” (priority 2001, published 2005)
